Laboratory results: US4723039A, “Phenylacetaldehydes substituted by basic groups, their preparation and drugs containing these compounds” (BASF Aktiengesellschaft, priority 1985, dated 1988)
Where a name gives a salt, the structure may show the parent alone.

Experiments:
[1] = test system: Histamine-induced bronchospasm; test: Broncholytic action, histamine-induced bronchospasm; type: in vivo; conditions: guinea pig, intravenous; for ED75: Cavia porcellus, 75% reduction in bronchospasms, read-out: ED 75% histamine-induced bronchospasm; for Broncholytic activity compared with verapamil, histamine-induced (in words): text does not separate the inducers
Excerpt: (§1) The animals were artificially ventilated using a Starling pump.

[2] = test system: Acetylcholine-induced bronchospasm; test: Broncholytic action, acetylcholine-induced bronchospasm; type: in vivo; conditions: guinea pig, intravenous; for ED75: Cavia porcellus, 75% reduction in bronchospasms, read-out: ED 75% acetylcholine-induced bronchospasm; for Broncholytic activity compared with verapamil, acetylcholine-induced (in words): text does not separate the inducers
Excerpt: as §1

[3] = test system: lesions of the gastric mucous membrane; test: Cytoprotective action (ethanol-induced gastric lesions); type: in vivo, Sprague-Dawley rat (female); conditions: rat, oral; for ED50: dose reducing lesions by 50%, read-out: Cytoprotective effect ED 50%
Method: The cytoprotective action was determined on groups of 8 female Sprague-Dawley rats weighing 160-190 g, the rats having received no food for 48 hours (water ad libitum) and having been pretreated with different doses of the test substances, administered orally. 1 hour later, 10 ml/kg of 100% ethanol were administered orally to the animals. After a further hour, the animals were sacrificed by inhalation of CO2, the stomach was removed and the intensity of the lesions was assessed on the basis of the following scheme:
0=unchanged mucous membrane
1=a few areas of reddening which are narrow, elongated or small
2=reddening over broad, elongated or large interrupted areas
3=pronounced reddening which colors virtually the entire mucous membrane of the glandular stomach.

[4] = test system: ulcerous lesions on the mucous membrane; test: Antiulcerous action (reserpine/indomethacin-induced gastric ulceration); type: in vivo, Sprague-Dawley rat (female); conditions: rat, oral; for ED50: dose reducing ulcerous area by 50%, read-out: Antiulcerous effect ED 50%
Method: To investigate the antiulcerous action, groups of 10 female Sprague-Dawley rats weighing 160-180 g received 1 mg/kg of reserpine, administered intraperitoneally, and thereafter remained without food for 18 hours (water ad libitum). […] Thereafter, they were kept for 6 hours at 8° C. and then sacrificed. The stomach was removed and the area of the ulcerous lesions on the mucous membrane was determined.

[5] = test system: secretion of gastric acid; test: Inhibition of secretion of gastric acid; type: in vivo, Sprague-Dawley rat (female); conditions: rat, oral; for ED (0.75 pH units): 1 h, dose increasing gastric mucosal surface pH by 0.75 pH units, read-out: Acid secretion-inhibiting effect ED 0.75; for Gastric acid secretion-inhibiting dose relative to verapamil: fraction of the dose required of verapamil
Method: Inhibition of the secretion of gastric acid is evident from an increase in the pH of the surface of the gastric mucous membrane. For this measurement, groups of from 5 to 10 female Sprague-Dawley rats weighing 160-190 g, which had remained without food for 48 hours (water ad libitum), were pretreated with different doses of the test substances, administered orally. […] The dose which produces an increase in the pH by 0.75 pH units is determined as the ED 0.75, from the linear regression of log dose and the increase in the pH.

[6] = test system: isolated spiral strips of aorta; test: Calcium-antagonistic action in isolated spiral strips of aorta; parameters: species or system Sprague-Dawley rat; conditions: in vitro; for EC50: Rattus norvegicus, 50% inhibition of the effect of 0.5 mM Ca++, K-depolarized strips, read-out: Ca-antagonistic action EC 50%; for Ca-antagonistic activity compared with verapamil (in words): rat aorta strips
Method: The Ca-antagonistic action was tested on spiral strips of aorta of male and female Sprague-Dawley rats weighing from 200 to 300 g.
The animals were sacrificed with ether, and the thorax and thoracic aorta were removed. A maximum of 6 spiral strips about 2 mm wide and 2 cm long were used per animal.
The strips of aorta were suspended in a modified tyrode solution at 37° C. and subjected to an initial tension with a load of 1.5 g and, after a relaxation time of about 1 hour, Ca was removed by keeping them for 5 minutes in Ca-free tyrode solution with the addition of 0.2 mM of Na EDTA.
The Ca-free strips of vessel were depolarized with K-rich tyrode solution for 10 minutes. Contraction was induced by a CaCl2 concentration of 0.5 mM. After 15 minutes, Ca was again removed from the strips of vessel by means of a Ca-free tyrode solution containing 0.2 mM of Na EDTA.
Depolarization was then effected again for 10 minutes with K-rich tyrode solution, after which 0.05 ml of the test substance was added. After the test substance had been allowed to act for 15 minutes, CaCl2 was again added in a concentration of 0.5 mM in order to check whether the test substance has a Ca-antagonistic action. Inhibition of the effect of 0.5 mM Ca^++ by the antagonistic substance is stated as a percentage.

blood pressure = test: Hypotensive action in anesthetized rats; type: in vivo, Sprague-Dawley rat; conditions: anesthetized rat; for Reduction in blood pressure, i.v., R.A.: verapamil = 1.0; for ED20: iv, 20% decrease in blood pressure, read-out: Reduction in blood pressure ED 20% i.v.
Method: The blood pressure was measured in the carotid artery. The substances were administered intravenously into the jugular vein. The dose which produces a 20% decrease in blood pressure was calculated as the ED 20%, from the linear regression of log dose (mg/kg) and relative decrease in blood pressure (Δ%).

systolic blood pressure = test: Antihypertensive action in spontaneously hypertensive rats; type: in vivo, spontaneously hypertensive male Okamoto rat; conditions: for Reduction in blood pressure, p.o., R.A. / ED20: SH rat, p.o.; for Reduction in blood pressure, p.o., R.A.: verapamil = 1.00; for ED20: po, 2 hours after administration, 20% reduction in systolic pressure, read-out: Reduction in blood pressure ED 20% p.o.
Method: To determine the antihypertensive action, the substances were administered orally to spontaneously hypertensive male Okamoto rats (4-8 animals/dose, weight 270-360 g). The systolic blood pressure was measured noninvasively on the rat's tail with the aid of piezoelectric transducers, before and 2 hours after administration. The dose which reduces the systolic pressure by 20%, relative to the values for untreated control animals, was determined as the ED 20%.

Row | SMILES | ED75 [1] [mg/kg] | Broncholytic activity compared with verapamil, histamine-induced (in words) [1] | ED75 [2] [mg/kg] | Broncholytic activity compared with verapamil, acetylcholine-induced (in words) [2] | ED (0.75 pH units) [5] [mg/kg] | EC50 [6] [nM] | Ca-antagonistic activity compared with verapamil (in words) [6] | further results
1 | COc1ccc(CCN(C)CCCC(C=O)(c2ccc(OC)c(OC)c2)C(C)C)cc1OC (stereo not drawn) [Example 8, 2-[3-[(3,4-Dimethoxyphenylethyl)-methylamino]-propyl]-2-isopropyl-3,4-dimethoxyphenylacetaldehyde] | 0.38 | substantially higher activity | 0.23 | substantially higher activity | – | – | – | –
2 | CC(C)[C@](C=O)(CCCN(C)CCc1ccccc1)c1ccccc1 [Example 3, (R)-2-[3-[(Phenylethyl)-methylamino]-propyl]-2-isopropylphenylacetaldehyde hydrochloride] | – | – | – | – | 2.1 | – | – | ED50 [3]: 8.3 mg/kg; ED50 [4]: 3.8 mg/kg; Gastric acid secretion-inhibiting dose relative to verapamil [5]: one-fifth
3 | COc1ccc(CCN(C)CCCC(C=O)(c2cc(OC)c(OC)c(OC)c2)C(C)C)cc1OC (stereo not drawn) [Example 10, 2-[3-[3,4-Dimethoxyphenylethyl)-methylamino]-propyl]-2-isopropyl-3,4,5-trimethoxyphenylacetaldehyde hydrogen oxalate] | – | – | – | – | – | 19 | substantially higher activity | –
4 | CC(C)[C@@](C=O)(CCCN(C)CCc1ccccc1)c1ccccc1 [Example 2, (S)-2-[3-[(Phenylethyl)-methylamino]-propyl]-2-isopropylphenylacetaldehyde hydrochloride] | – | – | – | – | 2 | – | – | ED50 [3]: 9.4 mg/kg; ED50 [4]: 12.2 mg/kg; Gastric acid secretion-inhibiting dose relative to verapamil [5]: one-fifth
5 | COc1cc(CCN(C)CCCC(C=O)(c2cc(OC)cc(OC)c2)C(C)C)cc(OC)c1 (stereo not drawn) [Example 11, 2-[3-[(3,5-Dimethoxyphenylethyl)-methylamino]-propyl]-2-isopropyl-3,5-dimethoxyphenylacetaldehyde hydrogen oxalate] | – | – | – | – | – | 12 | substantially higher activity | –
6 | COc1ccc(CCN(C)CCCC(C#N)(c2ccc(OC)c(OC)c2)C(C)C)cc1OC (stereo not drawn) [Verapamil, verapamil, reference compound] | 1.3 | – | 0.56 | – | 10.5 | 35 | – | Cytoprotective effect ED 50% (no effect) [3]: (2); Antiulcerous effect ED 50% (no effect) [4]: (2); Reduction in blood pressure, i.v., R.A. (blood pressure): 1.0; ED20 (blood pressure; i.v.): 0.34 mg/kg; Reduction in blood pressure, p.o., R.A. (systolic blood pressure): 1.00; ED20 (systolic blood pressure): 25 mg/kg
7 | CCOc1cc(CCN(C)CCCC(C=O)(c2cc(OCC)cc(OCC)c2)C(C)C)cc(OCC)c1 (stereo not drawn) [Example 12, 2-[3-[(3,5-Diethoxyphenylethyl)-methylamino]-propyl]1-2-isopropyl-3,5-diethoxyphenylacetaldehyde hydrogen oxalate] | 0.65 | substantially higher activity | 0.27 | substantially higher activity | – | 32 | – | Reduction in blood pressure, i.v., R.A. (blood pressure): 1.13; Reduction of blood pressure compared with verapamil (in words) (blood pressure; i.v.): reduces the blood pressure to a somewhat greater extent than verapamil; ED20 (blood pressure; i.v.): 0.3 mg/kg; Reduction in blood pressure, p.o., R.A. (systolic blood pressure): 6.25; Blood pressure reducing dose, times smaller compared with verapamil (systolic blood pressure; conscious spontaneously hypertensive rats, oral): 6.3 times; ED20 (systolic blood pressure): 4 mg/kg
8 | COc1cccc(CCN(C)CCCC(C=O)(c2ccc(OC)c(OC)c2)C(C)C)c1 (stereo not drawn) [Example 6, 2-[3-[(3-Methoxyphenylethyl)-methylamino]-propyl]-2-isopropyl-3,4-dimethoxyphenylacetaldehyde] | 0.59 | substantially higher activity | 0.39 | substantially higher activity | – | – | – | –
9 | COc1cccc(CCN(C)CCCC(C=O)(c2cccc(OC)c2)C(C)C)c1 (stereo not drawn) [Example 7, 2-[3-[(3-Methoxyphenylethyl)-methylamino]-propyl]-2-isopropyl-3-methoxyphenylacetaldehyde] | 0.61 | substantially higher activity | 0.67 | substantially higher activity | – | 22 | – | –
10 | COc1cccc(CCN(C)CCCC(C=O)(c2cc(OC)c(OC)c(OC)c2)C(C)C)c1 (stereo not drawn) [Example 9, 2-[3-[(3-Methoxyphenylethyl)-methylamino]-propyl]-2-isopropyl-3,4,5-trimethoxyphenylacetaldehyde hydrogen oxalate] | – | – | – | – | – | 1.2 | substantially higher activity | –
